Experimental data reported in PubChem BioAssay AID248 (DTP/NCI, 2004).
Values joined by “and” are separate entries in the source; they are usually repeats but may differ in a detail not shown here. Equal values may be shown once. Toxic doses and inconclusive results are not listed. No stated cut-off is given here; in the data, active means T/C of 150% or more; inactive means T/C below 125%.

Tested on: L1210 leukemia ip in BDF1 mice, survival T/C
Test: NCI In Vivo Anticancer Drug Screen. Data for tumor model L1210 Leukemia (intraperitoneal) in B6D2F1 (BDF1) mice
Conditions: endpoint: mean survival time, higher = longer survival
Outline: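 In this screen, tumor-bearing mice given compound are compared to those given vehicle, and their survival values are reported as a treated-to-control quotient.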

[1] = dose: 100.0 mg/kg/injection, schedule: Q01DX009 (ip), vehicle: saline with Tween-80
[2] = dose: 12.5 mg/kg/injection, schedule: Q01DX009 (ip), vehicle: saline with Tween-80
[3] = dose: 25.0 mg/kg/injection, schedule: Q01DX009 (ip), vehicle: saline with Tween-80
[4] = dose: 100.0 mg/kg/injection, schedule: Q01DX001 (ip), vehicle: saline
[5] = dose: 200.0 mg/kg/injection, schedule: Q01DX001 (ip), vehicle: saline
[6] = dose: 400.0 mg/kg/injection, schedule: Q01DX001 (ip), vehicle: saline
[7] = dose: 100.0 mg/kg/injection, schedule: Q01DX009 (ip), vehicle: Klucel (hydroxypropylcellulose) (HPC)
[8] = dose: 200.0 mg/kg/injection, schedule: Q01DX009 (ip), vehicle: Klucel (hydroxypropylcellulose) (HPC)
[9] = dose: 400.0 mg/kg/injection, schedule: Q01DX009 (ip), vehicle: Klucel (hydroxypropylcellulose) (HPC)
[10] = dose: 100.0 mg/kg/injection, schedule: Q04DX003 (ip), vehicle: Klucel (hydroxypropylcellulose) (HPC)
[11] = dose: 200.0 mg/kg/injection, schedule: Q04DX003 (ip), vehicle: Klucel (hydroxypropylcellulose) (HPC)
[12] = dose: 400.0 mg/kg/injection, schedule: Q04DX003 (ip), vehicle: Klucel (hydroxypropylcellulose) (HPC)
[13] = dose: 100.0 mg/kg/injection, schedule: Q04DX003 (ip), vehicle: saline
[14] = dose: 200.0 mg/kg/injection, schedule: Q04DX003 (ip), vehicle: saline
[15] = dose: 400.0 mg/kg/injection, schedule: Q04DX003 (ip), vehicle: saline

Measured: T/C

CC1(C)NC(=O)C2CC21C (stereo not given)
inactive: dose: 100.0 mg/kg/injection, schedule: Q04DX002 (ip), vehicle: saline 91 % of control

O=C1OC(=O)c2ccc([N+](=O)[O-])c3c([N+](=O)[O-])ccc1c23
inactive: [1] 88 % of control | dose: 200.0 mg/kg/injection, schedule: Q01DX009 (ip), vehicle: saline with Tween-80 95 % of control | dose: 400.0 mg/kg/injection, schedule: Q01DX009 (ip), vehicle: saline with Tween-80 91 % of control

O=C(N/N=C/c1ccccn1)C1CCCO1 (stereo not given)
inactive: dose: 25.0 mg/kg/injection, schedule: Q01DX009 (ip), vehicle: saline 102 % of control | dose: 50.0 mg/kg/injection, schedule: Q01DX009 (ip), vehicle: saline 102 % of control | dose: 100.0 mg/kg/injection, schedule: Q01DX009 (ip), vehicle: saline 98 % of control and 116 % of control | dose: 200.0 mg/kg/injection, schedule: Q01DX009 (ip), vehicle: saline 117 % of control

Cc1c(O)ccc([N+](=O)[O-])c1O
inactive: dose: 6.25 mg/kg/injection, schedule: Q01DX009 (ip), vehicle: saline with Tween-80 93 % of control | [2] 97 % of control | [3] 97 % of control

CCCCCCCCCCCCCCCCCCSC(=N)N
inactive: [2] 101 % of control | [3] 98 % of control | dose: 50.0 mg/kg/injection, schedule: Q01DX009 (ip), vehicle: saline with Tween-80 95 % of control | [1] 100 % of control

CCOC(Nc1ccccc1[N+](=O)[O-])C(=O)c1ccccc1 (stereo not given)
inactive: [4] 91 % of control | [5] 86 % of control | [6] 89 % of control

c1ccc(N=P(c2ccccc2)(c2ccccc2)c2ccccc2)cc1
inactive: [4] 94 % of control | [5] 94 % of control

COc1ccc(Cl)cc1NC(=O)C(Br)C(Br)c1ccccc1 (stereo not given)
inactive: [7] 100 % of control | [8] 97 % of control | [9] 86 % of control

COc1ccc(CCNC(=O)C(=O)NCCc2ccc(OC)c(OC)c2)cc1OC
inactive: [10] 101 % of control | [11] 89 % of control | [12] 92 % of control

C[Si](C)(C)Oc1cccc(O[Si](C)(C)C)c1
inactive: dose: 100.0 mg/kg/injection, schedule: Q04DX003 (ip), vehicle: saline with Tween-80 95 % of control | dose: 200.0 mg/kg/injection, schedule: Q04DX003 (ip), vehicle: saline with Tween-80 96 % of control | dose: 400.0 mg/kg/injection, schedule: Q04DX003 (ip), vehicle: saline with Tween-80 93 % of control

CCCC(=O)Nc1ccc(N=Nc2ccccc2)cc1
inactive: dose: 25.0 mg/kg/injection, schedule: Q01DX009 (ip), vehicle: Klucel (hydroxypropylcellulose) (HPC) 100 % of control | dose: 50.0 mg/kg/injection, schedule: Q01DX009 (ip), vehicle: Klucel (hydroxypropylcellulose) (HPC) 92 % of control | [7] 94 % of control and 96 % of control | [8] 95 % of control

CCCCN(CCCC)CCCNc1c2c(nc3ccccc13)CCCC2
inactive: dose: 5.0 mg/kg/injection, schedule: Q01DX001 (ip), vehicle: saline 95 % of control | dose: 10.0 mg/kg/injection, schedule: Q01DX001 (ip), vehicle: saline 95 % of control | dose: 20.0 mg/kg/injection, schedule: Q01DX001 (ip), vehicle: saline 93 % of control | dose: 40.0 mg/kg/injection, schedule: Q01DX001 (ip), vehicle: saline 89 % of control | dose: 50.0 mg/kg/injection, schedule: Q01DX001 (ip), vehicle: saline 91 % of control | dose: 80.0 mg/kg/injection, schedule: Q01DX001 (ip), vehicle: saline 93 % of control

O=[N+]([O-])c1ccc(-c2nn[nH]n2)cc1
inactive: [4] 92 % of control | [13] 103 % of control | [5] 103 % of control | [14] 93 % of control | dose: 264.0 mg/kg/injection, schedule: Q04DX003 (ip), vehicle: acetone 96 % of control | dose: 264.0 mg/kg/injection, schedule: Q04DX003 (ip), vehicle: saline with Tween-80 106 % of control | [6] 105 % of control | dose: 400.0 mg/kg/injection, schedule: Q04DX003 (ip), vehicle: acetone 102 % of control

O=C(Nc1cccc2ccccc12)c1ccc(Cl)c(Cl)c1
inactive: [7] 104 % of control | [8] 100 % of control | [9] 98 % of control

CC[N+]1(CN2CCCCC2)CCCCC1
inactive: dose: 12.5 mg/kg/injection, schedule: Q04DX003 (ip), vehicle: Klucel (hydroxypropylcellulose) (HPC) 102 % of control | dose: 25.0 mg/kg/injection, schedule: Q04DX003 (ip), vehicle: Klucel (hydroxypropylcellulose) (HPC) 96 % of control | dose: 50.0 mg/kg/injection, schedule: Q04DX003 (ip), vehicle: Klucel (hydroxypropylcellulose) (HPC) 90 % of control

CC(C)CCCc1c[nH]c(=O)[nH]c1=O
inactive: [7] 105 % of control | dose: 100.0 mg/kg/injection, schedule: Q04DX003 (ip), vehicle: other 103 % of control | [8] 97 % of control | dose: 200.0 mg/kg/injection, schedule: Q04DX003 (ip), vehicle: other 101 % of control | [9] 97 % of control | dose: 400.0 mg/kg/injection, schedule: Q04DX003 (ip), vehicle: other 117 % of control

O=C(O)NC1(c2ccccc2)OC1c1ccccc1 (stereo not given)
inactive: dose: 50.0 mg/kg/injection, schedule: Q01DX001 (ip), vehicle: saline with Tween-80 115 % of control | dose: 100.0 mg/kg/injection, schedule: Q01DX001 (ip), vehicle: saline with Tween-80 98 % of control | dose: 200.0 mg/kg/injection, schedule: Q01DX001 (ip), vehicle: saline with Tween-80 94 % of control

CCSC(C(O)C(O)C(O)C(O)CO)n1cnc2c(=S)nc[nH]c21 (stereo not given)
inactive: [4] 105 % of control | [13] 96 % of control | [5] 105 % of control | [14] 100 % of control | [6] 103 % of control | [15] 96 % of control

O=[N+]([O-])c1cc(-c2ccccc2)cc([N+](=O)[O-])c1Cl
inactive: dose: 50.0 mg/kg/injection, schedule: Q01DX009 (ip), vehicle: acetone 97 % of control | dose: 100.0 mg/kg/injection, schedule: Q01DX009 (ip), vehicle: acetone 100 % of control | [13] 96 % of control | dose: 200.0 mg/kg/injection, schedule: Q01DX009 (ip), vehicle: acetone 95 % of control | [14] 102 % of control | [15] 102 % of control

Cc1cccc(C)c1N1C(=O)CC(Sc2ccccc2N)C1=O (stereo not given)
inactive: [7] 92 % of control | [10] 98 % of control | [8] 88 % of control | [11] 95 % of control | [9] 88 % of control | [12] 93 % of control
